From ChEMBL document CHEMBL1201862, “PubChem BioAssay data set” (2004)
Calls of active or inactive are those of the source.

What was measured:
[1] = THP-1 cell cytotoxicity, dose response, cytotoxicity control for non-replicating M. tuberculosis project (AID 489025); assay type: functional
[2] = biological target: Voltage-dependent T-type calcium channel subunit alpha-1H (Homo sapiens, UniProt O95180); assay type: functional;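 further: channel activity triggered by adding a high calcium stimulation buffer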
[3] = HepG2 cell cytotoxicity, dose response, cytotoxicity control for non-replicating M. tuberculosis project (AID 489018); assay type: functional; details: Mycobacterium tuberculosis
cells = assay type: functional
[4] = microbe, parasite or virus in culture; assay type: functional; details: Mycobacterium tuberculosis
[5] = biological target: T1, Ubiquitin-conjugating enzyme E2 N (Homo sapiens, UniProt P61088); assay type: functional
T1 sequence (P61088 whole entry): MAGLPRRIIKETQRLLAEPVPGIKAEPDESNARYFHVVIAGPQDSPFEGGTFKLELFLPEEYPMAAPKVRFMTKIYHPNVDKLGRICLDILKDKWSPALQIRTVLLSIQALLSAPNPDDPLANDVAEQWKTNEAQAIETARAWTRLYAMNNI

Bcl-2-related protein A1 = biological target: T2, Bcl-2-related protein A1 (Mus musculus, UniProt Q07440); assay type: functional;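 further: confirmatory dose–response counterscreen on Bfl-1, used to check hits from a UBC13 polyubiquitin inhibitor campaign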
T2 sequence (Q07440 whole entry): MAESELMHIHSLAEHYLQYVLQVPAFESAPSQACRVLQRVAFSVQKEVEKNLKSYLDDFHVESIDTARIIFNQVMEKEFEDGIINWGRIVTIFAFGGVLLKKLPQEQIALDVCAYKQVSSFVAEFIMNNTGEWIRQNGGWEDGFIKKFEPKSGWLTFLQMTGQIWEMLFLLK

[6] = biological target: T1, Ubiquitin-conjugating enzyme E2 N; assay type: functional; remark: listed apart in the source
[7] = biological target: T3, Short transient receptor potential channel 4 (Mus musculus, UniProt Q9QUQ5); experiment: mouse TRPC4 channel activators, dose response, cell-based, HEK293 TRPC4/mu-opioid, Fluo-4 calcium (AID 434937); assay type: functional
T3 sequence (Q9QUQ5 whole entry): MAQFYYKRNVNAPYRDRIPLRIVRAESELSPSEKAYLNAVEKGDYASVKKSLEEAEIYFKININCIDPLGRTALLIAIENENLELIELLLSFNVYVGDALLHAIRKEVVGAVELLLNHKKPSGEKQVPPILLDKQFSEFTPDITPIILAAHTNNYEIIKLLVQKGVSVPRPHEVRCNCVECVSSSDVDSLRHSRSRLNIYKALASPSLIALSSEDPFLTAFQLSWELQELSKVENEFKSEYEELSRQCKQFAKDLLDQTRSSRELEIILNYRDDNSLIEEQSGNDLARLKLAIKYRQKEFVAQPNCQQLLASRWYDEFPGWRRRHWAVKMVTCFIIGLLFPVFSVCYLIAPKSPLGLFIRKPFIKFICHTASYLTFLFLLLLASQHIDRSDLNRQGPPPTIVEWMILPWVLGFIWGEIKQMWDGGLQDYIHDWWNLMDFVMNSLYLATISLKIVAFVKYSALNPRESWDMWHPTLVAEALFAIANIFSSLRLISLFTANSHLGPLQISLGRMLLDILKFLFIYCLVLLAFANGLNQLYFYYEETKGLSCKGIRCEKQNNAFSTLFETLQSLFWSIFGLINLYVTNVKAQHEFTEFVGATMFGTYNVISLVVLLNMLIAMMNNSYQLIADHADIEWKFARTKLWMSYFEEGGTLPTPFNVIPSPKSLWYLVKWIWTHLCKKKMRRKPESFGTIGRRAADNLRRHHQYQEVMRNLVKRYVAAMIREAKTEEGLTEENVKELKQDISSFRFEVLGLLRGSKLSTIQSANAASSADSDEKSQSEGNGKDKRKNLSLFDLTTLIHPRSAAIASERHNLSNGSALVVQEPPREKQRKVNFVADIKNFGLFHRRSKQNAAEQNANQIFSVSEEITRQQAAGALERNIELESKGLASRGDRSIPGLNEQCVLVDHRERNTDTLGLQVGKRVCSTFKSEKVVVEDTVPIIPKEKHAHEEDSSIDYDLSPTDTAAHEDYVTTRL

Cytochrome P450 3A4 = Cytochrome P450 3A4 (Homo sapiens, UniProt P08684);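 further: CYP3A4 tested as one member of a cytochrome P450 panel screen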
Aminopeptidase N = biological target: T4, Aminopeptidase N (Plasmodium falciparum FcB1/Columbia, UniProt O96935); experiment: P. falciparum M1AAP inhibitors, biochemical, fluorogenic H-Leu-NHMec substrate, 1536-well (AID 1445); parameters: species or system Plasmodium falciparum 3D7, 3D7
T4 sequence (O96935 whole entry): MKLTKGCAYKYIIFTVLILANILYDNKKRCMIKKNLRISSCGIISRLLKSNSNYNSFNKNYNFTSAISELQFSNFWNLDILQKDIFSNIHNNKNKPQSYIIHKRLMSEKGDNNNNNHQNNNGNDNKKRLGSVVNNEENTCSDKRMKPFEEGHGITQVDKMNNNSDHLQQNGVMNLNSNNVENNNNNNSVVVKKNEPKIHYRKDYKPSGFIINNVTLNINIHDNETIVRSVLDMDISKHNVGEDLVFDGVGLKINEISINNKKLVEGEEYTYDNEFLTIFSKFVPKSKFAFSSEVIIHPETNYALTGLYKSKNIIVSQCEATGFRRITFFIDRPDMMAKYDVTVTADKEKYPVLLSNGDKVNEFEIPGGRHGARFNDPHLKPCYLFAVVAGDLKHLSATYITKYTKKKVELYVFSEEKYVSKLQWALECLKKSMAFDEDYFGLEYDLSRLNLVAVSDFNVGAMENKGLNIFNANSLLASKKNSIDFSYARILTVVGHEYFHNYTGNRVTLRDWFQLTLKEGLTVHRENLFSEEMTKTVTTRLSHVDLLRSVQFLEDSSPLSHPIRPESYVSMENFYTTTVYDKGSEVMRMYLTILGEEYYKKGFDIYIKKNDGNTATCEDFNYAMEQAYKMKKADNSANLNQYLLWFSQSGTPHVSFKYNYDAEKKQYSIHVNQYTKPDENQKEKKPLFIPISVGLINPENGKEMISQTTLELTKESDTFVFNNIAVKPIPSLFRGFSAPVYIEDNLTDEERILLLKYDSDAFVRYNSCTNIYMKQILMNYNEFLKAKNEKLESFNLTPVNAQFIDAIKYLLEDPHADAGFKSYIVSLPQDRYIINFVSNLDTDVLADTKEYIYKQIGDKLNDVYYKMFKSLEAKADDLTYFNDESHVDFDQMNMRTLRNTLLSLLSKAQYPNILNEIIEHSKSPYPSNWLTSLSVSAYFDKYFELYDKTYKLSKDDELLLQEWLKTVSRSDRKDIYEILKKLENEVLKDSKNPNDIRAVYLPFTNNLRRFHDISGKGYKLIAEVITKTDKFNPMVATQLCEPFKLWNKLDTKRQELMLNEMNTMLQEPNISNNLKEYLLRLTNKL

Cytochrome P450 2C9 = Cytochrome P450 2C9 (Homo sapiens, UniProt P11712)
[8] = biological target: Dual specificity tyrosine-phosphorylation-regulated kinase 1A (Rattus norvegicus, UniProt Q63470); assay type: biochemical, Homo sapiens
Genome polyprotein = Genome polyprotein (dengue virus type 2, UniProt P29990); experiment: Dengue-2 NS5 methyltransferase inhibitors, primary screen, biochemical, confirmation dose response (AID 588689); assay type: functional
Streptococcus = experiment: Group A Streptococcus viability loss, dose response, counter-screen for streptokinase expression inhibitor project, luminescence, BacTiterGlo (AID 1915); assay type: functional, organism-based;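 further: potency for reduction of bacterial viability or growth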
[9] = system: Streptococcus sp. 'group A'; experiment: growth inhibition of control SK(-) GAS strain, dose response, counter-screen for streptokinase expression inhibitor project, luminescence, kanamycin, BacTiterGlo, confirmation (AID 1900); assay type: functional, organism-based
Cytochrome P450 2C19 = Cytochrome P450 2C19 (Homo sapiens, UniProt P33261); experiment: Cytochrome panel assay with activity outcomes. Panel member name: p450-cyp2c19 Compounds with AC50 equal or less than 10 uM are considered active; assay type: functional; details: read-out: AC50
Streptokinase A = biological target: T5, Streptokinase A (Streptococcus pyogenes serotype M1, UniProt P10520); experiment: S. pyogenes streptokinase expression inhibitors, potency, dose response, plasminogen activation absorbance, OD405 (AID 1914); assay type: functional, Streptococcus pyogenes M1 GAS;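 further: secreted streptokinase activity via plasminogen activation per viability signal from cell pellet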
T5 sequence (P10520 whole entry): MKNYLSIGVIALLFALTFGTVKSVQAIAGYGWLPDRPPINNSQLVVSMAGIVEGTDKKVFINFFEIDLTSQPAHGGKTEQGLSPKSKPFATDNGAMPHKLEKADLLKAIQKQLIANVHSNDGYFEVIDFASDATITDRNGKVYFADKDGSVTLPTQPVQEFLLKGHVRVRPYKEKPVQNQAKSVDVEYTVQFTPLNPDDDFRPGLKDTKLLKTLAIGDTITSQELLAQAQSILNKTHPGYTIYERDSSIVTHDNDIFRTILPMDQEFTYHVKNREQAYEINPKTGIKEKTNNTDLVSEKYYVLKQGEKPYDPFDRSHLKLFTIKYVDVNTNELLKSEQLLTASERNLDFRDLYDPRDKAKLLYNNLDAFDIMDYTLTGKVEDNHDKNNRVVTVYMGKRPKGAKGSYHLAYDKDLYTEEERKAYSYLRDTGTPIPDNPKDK

Cytochrome P450 1A2 = biological target: T6, Cytochrome P450 1A2 (Homo sapiens, UniProt P05177);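 further: PubChem cytochrome P450 panel assay, CYP1A2 panel member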
T6 sequence (P05177 whole entry): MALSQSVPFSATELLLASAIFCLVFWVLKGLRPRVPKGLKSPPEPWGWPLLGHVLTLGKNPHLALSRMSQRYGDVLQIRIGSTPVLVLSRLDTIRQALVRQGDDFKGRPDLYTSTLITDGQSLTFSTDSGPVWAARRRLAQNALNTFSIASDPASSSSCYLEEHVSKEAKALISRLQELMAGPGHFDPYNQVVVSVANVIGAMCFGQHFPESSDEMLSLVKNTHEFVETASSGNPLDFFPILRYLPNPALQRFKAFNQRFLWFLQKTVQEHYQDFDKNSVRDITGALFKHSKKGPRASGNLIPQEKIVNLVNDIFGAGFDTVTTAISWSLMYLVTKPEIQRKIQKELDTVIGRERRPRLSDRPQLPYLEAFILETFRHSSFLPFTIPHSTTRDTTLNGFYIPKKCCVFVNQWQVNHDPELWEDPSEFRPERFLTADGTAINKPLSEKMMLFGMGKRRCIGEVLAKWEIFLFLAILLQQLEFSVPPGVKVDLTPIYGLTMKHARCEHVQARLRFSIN

Chain of Voltage-dependent T-type calcium channel subunit alpha-1H (O95180 whole entry): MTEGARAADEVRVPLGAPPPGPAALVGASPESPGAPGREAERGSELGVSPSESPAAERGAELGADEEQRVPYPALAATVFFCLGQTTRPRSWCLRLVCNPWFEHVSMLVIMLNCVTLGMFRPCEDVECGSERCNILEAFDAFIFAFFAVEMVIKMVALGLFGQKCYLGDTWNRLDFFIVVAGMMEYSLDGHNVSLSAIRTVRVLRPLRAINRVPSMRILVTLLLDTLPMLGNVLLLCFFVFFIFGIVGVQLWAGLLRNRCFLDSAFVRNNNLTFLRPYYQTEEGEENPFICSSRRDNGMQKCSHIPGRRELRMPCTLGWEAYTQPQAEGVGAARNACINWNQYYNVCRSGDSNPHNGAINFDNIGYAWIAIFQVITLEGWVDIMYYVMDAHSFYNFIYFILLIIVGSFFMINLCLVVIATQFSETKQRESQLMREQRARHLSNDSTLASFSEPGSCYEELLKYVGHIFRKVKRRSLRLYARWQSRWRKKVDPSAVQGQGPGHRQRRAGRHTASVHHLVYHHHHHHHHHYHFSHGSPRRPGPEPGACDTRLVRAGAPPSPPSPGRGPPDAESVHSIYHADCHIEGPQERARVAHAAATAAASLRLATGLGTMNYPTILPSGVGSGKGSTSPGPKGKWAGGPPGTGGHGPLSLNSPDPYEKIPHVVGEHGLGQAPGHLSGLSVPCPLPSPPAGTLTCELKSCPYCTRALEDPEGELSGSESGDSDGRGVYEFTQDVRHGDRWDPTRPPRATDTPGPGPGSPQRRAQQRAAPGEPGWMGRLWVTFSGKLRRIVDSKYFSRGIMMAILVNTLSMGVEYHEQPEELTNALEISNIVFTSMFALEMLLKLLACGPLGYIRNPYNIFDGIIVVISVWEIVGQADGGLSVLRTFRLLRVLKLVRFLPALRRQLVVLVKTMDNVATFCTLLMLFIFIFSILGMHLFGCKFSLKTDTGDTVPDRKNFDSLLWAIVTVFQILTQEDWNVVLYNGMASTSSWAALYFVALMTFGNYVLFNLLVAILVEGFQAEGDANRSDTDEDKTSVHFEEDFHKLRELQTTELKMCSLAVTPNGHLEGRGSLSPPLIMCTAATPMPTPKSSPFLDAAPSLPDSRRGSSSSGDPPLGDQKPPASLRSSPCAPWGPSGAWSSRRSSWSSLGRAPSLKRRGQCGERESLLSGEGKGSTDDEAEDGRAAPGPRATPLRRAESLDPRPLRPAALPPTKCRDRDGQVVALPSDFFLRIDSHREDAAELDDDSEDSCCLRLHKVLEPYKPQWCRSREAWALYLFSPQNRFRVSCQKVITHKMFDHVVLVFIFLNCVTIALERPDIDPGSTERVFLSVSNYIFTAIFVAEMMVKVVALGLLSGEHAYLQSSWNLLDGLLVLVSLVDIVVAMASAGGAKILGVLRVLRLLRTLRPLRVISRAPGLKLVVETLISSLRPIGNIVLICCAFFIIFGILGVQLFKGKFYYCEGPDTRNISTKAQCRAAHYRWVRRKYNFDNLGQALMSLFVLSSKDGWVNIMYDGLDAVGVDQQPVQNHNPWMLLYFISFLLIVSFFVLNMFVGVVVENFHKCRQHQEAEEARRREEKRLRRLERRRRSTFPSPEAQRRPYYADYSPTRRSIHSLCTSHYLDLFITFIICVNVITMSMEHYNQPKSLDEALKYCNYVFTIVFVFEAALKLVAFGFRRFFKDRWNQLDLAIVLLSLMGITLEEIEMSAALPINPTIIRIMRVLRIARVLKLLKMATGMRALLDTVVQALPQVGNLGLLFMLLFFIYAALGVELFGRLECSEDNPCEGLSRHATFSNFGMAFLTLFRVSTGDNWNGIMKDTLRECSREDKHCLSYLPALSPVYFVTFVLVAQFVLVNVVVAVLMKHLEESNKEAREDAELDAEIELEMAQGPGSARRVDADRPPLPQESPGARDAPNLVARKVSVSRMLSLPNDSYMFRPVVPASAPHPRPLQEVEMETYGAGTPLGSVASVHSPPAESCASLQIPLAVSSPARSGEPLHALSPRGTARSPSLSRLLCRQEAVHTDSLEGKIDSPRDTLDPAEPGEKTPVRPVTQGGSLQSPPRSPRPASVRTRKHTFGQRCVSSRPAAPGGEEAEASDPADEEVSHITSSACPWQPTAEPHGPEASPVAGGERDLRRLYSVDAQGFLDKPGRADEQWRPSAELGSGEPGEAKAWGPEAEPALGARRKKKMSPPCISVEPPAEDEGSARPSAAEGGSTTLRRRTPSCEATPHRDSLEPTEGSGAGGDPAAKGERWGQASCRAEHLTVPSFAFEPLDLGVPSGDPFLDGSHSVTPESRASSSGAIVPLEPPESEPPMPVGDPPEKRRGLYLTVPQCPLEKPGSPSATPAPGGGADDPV
Chain of Cytochrome P450 3A4 (P08684 whole entry): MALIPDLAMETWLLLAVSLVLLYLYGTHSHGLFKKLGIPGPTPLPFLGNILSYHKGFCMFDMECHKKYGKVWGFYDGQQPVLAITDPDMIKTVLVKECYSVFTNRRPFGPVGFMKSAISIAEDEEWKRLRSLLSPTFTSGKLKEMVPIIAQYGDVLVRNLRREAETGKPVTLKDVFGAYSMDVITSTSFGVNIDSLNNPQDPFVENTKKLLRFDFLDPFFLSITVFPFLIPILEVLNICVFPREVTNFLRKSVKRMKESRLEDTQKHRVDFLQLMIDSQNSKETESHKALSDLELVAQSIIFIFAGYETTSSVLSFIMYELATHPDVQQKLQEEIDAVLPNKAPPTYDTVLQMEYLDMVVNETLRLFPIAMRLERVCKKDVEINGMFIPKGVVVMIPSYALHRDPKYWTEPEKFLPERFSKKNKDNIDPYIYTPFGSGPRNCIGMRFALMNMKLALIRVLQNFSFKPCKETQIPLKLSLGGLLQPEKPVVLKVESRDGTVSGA
Chain of Cytochrome P450 2C19 (P33261 whole entry): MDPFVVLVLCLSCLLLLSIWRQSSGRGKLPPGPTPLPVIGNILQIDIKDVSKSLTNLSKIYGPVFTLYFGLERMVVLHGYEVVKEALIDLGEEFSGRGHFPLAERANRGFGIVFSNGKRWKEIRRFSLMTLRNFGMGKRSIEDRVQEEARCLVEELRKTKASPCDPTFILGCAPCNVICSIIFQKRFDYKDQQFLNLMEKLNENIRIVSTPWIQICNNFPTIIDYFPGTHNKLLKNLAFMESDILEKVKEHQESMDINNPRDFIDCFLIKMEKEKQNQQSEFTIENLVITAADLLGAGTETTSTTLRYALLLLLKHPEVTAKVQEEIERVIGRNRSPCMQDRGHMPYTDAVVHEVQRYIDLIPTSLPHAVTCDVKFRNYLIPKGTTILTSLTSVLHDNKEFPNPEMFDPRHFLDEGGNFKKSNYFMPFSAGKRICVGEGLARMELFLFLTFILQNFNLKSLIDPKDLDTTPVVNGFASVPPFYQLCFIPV
Chain of Cytochrome P450 2C9 (P11712 whole entry): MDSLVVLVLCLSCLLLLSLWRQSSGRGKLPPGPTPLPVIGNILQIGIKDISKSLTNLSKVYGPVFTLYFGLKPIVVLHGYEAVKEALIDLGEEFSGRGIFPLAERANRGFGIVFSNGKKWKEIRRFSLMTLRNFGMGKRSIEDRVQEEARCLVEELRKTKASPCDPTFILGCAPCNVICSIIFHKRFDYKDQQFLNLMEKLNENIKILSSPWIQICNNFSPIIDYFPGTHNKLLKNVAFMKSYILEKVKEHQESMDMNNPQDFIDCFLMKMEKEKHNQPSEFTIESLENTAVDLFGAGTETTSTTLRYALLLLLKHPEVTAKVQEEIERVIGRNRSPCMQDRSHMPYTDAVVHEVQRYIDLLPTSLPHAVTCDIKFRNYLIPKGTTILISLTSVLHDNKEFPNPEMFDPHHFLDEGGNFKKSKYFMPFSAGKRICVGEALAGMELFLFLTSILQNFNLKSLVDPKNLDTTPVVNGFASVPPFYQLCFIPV
Chain of Genome polyprotein (P29990 2492-3391 limits assumed): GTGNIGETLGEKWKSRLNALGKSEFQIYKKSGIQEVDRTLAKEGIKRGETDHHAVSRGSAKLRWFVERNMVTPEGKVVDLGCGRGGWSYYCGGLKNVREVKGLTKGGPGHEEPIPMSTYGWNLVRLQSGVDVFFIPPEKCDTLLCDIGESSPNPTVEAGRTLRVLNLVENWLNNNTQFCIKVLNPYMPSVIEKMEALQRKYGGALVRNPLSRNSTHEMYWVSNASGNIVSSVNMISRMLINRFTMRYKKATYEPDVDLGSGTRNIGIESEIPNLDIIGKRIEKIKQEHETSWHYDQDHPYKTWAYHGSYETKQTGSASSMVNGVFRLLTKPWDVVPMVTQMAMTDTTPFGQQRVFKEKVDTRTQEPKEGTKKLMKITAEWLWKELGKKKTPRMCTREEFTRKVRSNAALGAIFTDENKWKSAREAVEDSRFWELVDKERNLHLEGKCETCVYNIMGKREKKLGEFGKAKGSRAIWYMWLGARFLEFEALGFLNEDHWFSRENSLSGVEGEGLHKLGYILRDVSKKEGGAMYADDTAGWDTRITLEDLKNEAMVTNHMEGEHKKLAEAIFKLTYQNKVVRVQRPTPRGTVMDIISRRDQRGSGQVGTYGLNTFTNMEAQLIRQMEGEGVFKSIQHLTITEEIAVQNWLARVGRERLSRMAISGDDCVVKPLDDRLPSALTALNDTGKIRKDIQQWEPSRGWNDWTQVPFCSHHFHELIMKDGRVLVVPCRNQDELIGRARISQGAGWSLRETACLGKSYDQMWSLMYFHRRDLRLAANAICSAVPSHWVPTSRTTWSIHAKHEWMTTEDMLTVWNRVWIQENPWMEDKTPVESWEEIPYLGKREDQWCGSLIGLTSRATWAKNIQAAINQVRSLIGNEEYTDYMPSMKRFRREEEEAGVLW

Compound: O=C(NCC1CCN(c2ccc(S(=O)(=O)N3CCOCC3)cc2)CC1)c1ccc(Cl)cc1
- CC50 [1]: > 40 µM (active)
- EC50 [2]: 21.2 µM (active)
- CC50 [3]: > 20 µM (active)
- IC50 (cells): 31.3 µM (active)
- CC50 [4]: > 40 µM (active)

Compound: COc1ccccc1OCc1nc(Cc2ccc(Cl)cc2)no1
- EC50 [2]: 7.9 µM (active)

Compound: Cc1ccc(-c2oc3ncnc(N)c3c2-c2ccc(C)cc2)cc1
- IC50 [5]: 12.5 µM (active)
- IC50 (Bcl-2-related protein A1): > 20 µM (inactive)
- IC50 [6]: 4.6 µM (active)

Compound: CSc1ccc(C(=O)NCC(c2ccco2)N(C)C)cc1[N+](=O)[O-] (stereo not drawn)
- EC50 [7]: 0.0333 µM (active)

Compound: CN1CCN(c2ncc3nc(-c4ccc(Cl)cc4)c(=O)n(C4CC4)c3n2)CC1
- AC50 (Cytochrome P450 3A4): inconclusive

Compound: O=C(Cn1nnc2ccccc2c1=O)N[C@@H](Cc1c[nH]c2ccccc12)C(=O)O
- IC50 (Aminopeptidase N): 71.6 µM (active)

Compound: Cc1ccc(-n2nnnc2-c2cnc(N3CCCC3)nc2C(F)(F)F)cc1
- EC50 [2]: 8.9 µM (active)

Compound: Cn1c(=O)c2c(ncn2Cc2cccc(Cl)c2)n(C)c1=O
- IC50 [5]: 10.4 µM (active)
- IC50 (Bcl-2-related protein A1): > 20 µM (inactive)
- IC50 [6]: 11.2 µM (active)

Compound: COc1ccc(C(CNc2nc(-c3cccnc3)nc3ccccc23)N(C)C)cc1 (stereo not drawn)
- EC50 [7]: 0.473 µM (active)

Compound: COCCNC(=O)Cn1cnc2ccc(S(=O)(=O)N3CCC(C)CC3)cc2c1=O
- AC50 (Cytochrome P450 3A4): inconclusive
- AC50 (Cytochrome P450 2C9): 10 µM (inconclusive)

Compound: CC(=O)Nc1ccc(C2(c3ccc(NC(C)=O)cc3)C(=O)Nc3ccccc32)cc1
- EC50 [7]: 1.5 µM (active)

Compound: O=C1NC(=O)/C(=C/c2ccc(-c3cc(C(=O)O)ccc3Cl)o2)S1
- AC50 [8]: 2.56 µM (active)
- IC50 (Genome polyprotein): 49.4 µM (active)

Compound: CC1CCN(S(=O)(=O)c2ccc(NC(=O)Cc3ccccc3)cc2)CC1
- EC50 [2]: 5.25 µM (active)

Compound: O=C(CCCc1c[nH]c2ccccc12)NCc1ccc2c(c1)OCO2
- EC50 [2]: 2.31 µM (active)

Compound: CC(C)c1ccc(OCC(=O)NNC(=S)NC(=O)C2CC2)cc1
- EC50 (Streptococcus): 1.33 µM (active)
- IC50 [5]: 17.3 µM (active)
- IC50 (Bcl-2-related protein A1): > 20 µM (inactive)
- EC50 [9]: 0.85 µM (active)
- IC50 [6]: 6.97 µM (active)

Compound: CCOc1cccc(OCCCNCCCOC)c1
- AC50 (Cytochrome P450 3A4): inconclusive
- AC50 (Cytochrome P450 2C19): 28.2 µM (inconclusive)

Compound: COc1ccc(C(CNC(=O)c2cccc(NS(=O)(=O)c3ccc(C)c(F)c3)c2)N(C)C)cc1 (stereo not drawn)
- EC50 [7]: 5.31 µM (active)

Compound: CN(C)C(CNC(C(=O)Nc1ccc(F)cc1)c1ccccc1)c1ccccc1 (stereo not drawn)
- EC50 [7]: 0.596 µM (active)

Compound: O=C(N/N=C/c1ccc([N+](=O)[O-])o1)c1ccc(NS(=O)(=O)c2cccs2)cc1
- EC50 (Streptococcus): 6.83 µM (active)
- EC50 (Streptokinase A): > 150 µM (not active)
- CC50 [1]: 15.9 µM (active)
- EC50 [9]: 1.24 µM (active)
- CC50 [3]: 12.9 µM (active)
- IC50 (cells): 7.09 µM (active)

Compound: Nc1nonc1C(=O)N/N=C/c1ccc(-c2ccc(Cl)c(C(=O)O)c2)o1
- IC50 (Aminopeptidase N): 43.8 µM (active)

Compound: O=C1C2C3C=CC(CC3)C2C(=O)N1/N=C/c1ccccc1O (stereo not drawn)
- AC50 (Cytochrome P450 3A4): inconclusive
- AC50 (Cytochrome P450 2C19): 15.8 µM (inconclusive)
- AC50 (Cytochrome P450 1A2): 1.78 µM (inconclusive)
- AC50 (Cytochrome P450 2C9): 14.1 µM (inconclusive)

Compound: CN(C)C/C=C/C(=O)Nc1cccc(-c2c[nH]c3ncnc(Oc4ccc(NC(=O)CC(=O)Nc5ccc(F)cc5)cc4F)c23)c1
- IC50 [5]: 3.5 µM (active)
- IC50 (Bcl-2-related protein A1): > 20 µM (inactive)
- IC50 [6]: 2.28 µM (active)

Compound: Cc1ccc(CSc2nnc(SCC(=O)N/N=C/c3ccccc3OCC(=O)O)s2)cc1
- IC50 (Aminopeptidase N): 30.6 µM (active)
